Data taken from US20030191051A1, “Combination therapy for the treatment of bacterial infections” (priority 2002, published 2003).

Assay: Combination therapy of antibiotic and COX-2 selective inhibitor administered to a mammal to treat or prevent a bacterial infection
Details: pharmaceutically effective amount, administered together with a pharmaceutically effective amount of linezolid to a mammal

Compound: CS(=O)(=O)c1ccc(C2=C(c3ccccc3)C(=O)OC2)cc1 [rofecoxib]
- side effects resulting from the administration of the antibiotic: reduced side effects
